The values below come from patent publication US10981894B2, “Melanocortin subtype-2 receptor (MC2R) antagonists and uses thereof” (Crinetics Pharmaceuticals, Inc., priority 2018, dated 2021).

Chain of hMC2 receptor (Q01718 whole entry): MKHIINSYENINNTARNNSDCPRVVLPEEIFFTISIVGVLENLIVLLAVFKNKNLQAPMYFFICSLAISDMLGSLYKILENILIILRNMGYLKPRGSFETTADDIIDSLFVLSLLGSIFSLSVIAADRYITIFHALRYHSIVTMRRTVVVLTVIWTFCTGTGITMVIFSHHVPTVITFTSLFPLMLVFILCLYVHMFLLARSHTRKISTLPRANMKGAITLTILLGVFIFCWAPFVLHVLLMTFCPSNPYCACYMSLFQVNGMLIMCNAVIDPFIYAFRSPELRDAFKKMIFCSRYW
Chain of hMC2 receptor (Q8TCY5 whole entry partner): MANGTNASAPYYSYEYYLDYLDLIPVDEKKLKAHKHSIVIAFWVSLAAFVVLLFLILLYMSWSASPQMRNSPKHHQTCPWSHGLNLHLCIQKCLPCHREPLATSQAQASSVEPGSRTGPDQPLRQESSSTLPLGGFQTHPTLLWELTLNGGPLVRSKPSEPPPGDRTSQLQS

This assay deals with hMC2 receptor (Homo sapiens, UniProt Q01718). Nature of the assay: hMC2 membrane binding assay ([125I]ACTH (1-39) Tyr23, SPA). The settings on record: crude hMC2R membranes from CRE-bla-CHO-K1 cells expressing hMC2 receptor and hMRAP; [125I]ACTH (1-39) Tyr23 0.2 nM; 1.5 hours at room temperature; read-out: MC2R binding potency. Details: scale not given here. The gist of the method:
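Ki comes from non-linear regression of SPA scintillation counts. Displacement of 0.2 nM [125I]ACTH(1-39) Tyr23 by compound dose series (usually 0–10,000 nM final) ran 1.5 h at room temperature. Membranes came from CHO-K1 CRE-bla cells stably expressing hMC2R plus hMRAP, bead-coupled in pH 7.4 buffer with 0.2% BSA.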
For `CCOc1ncccc1-c1ccc(N2CCN(C(=O)c3ccc(Cl)cc3N3CC[C@@H](CN)C3)C[C@H]2CC)c(C(=O)NCCN)c1` [Compound 1-41, N-(2-aminoethyl)-2-[(2R)-4-{2-[(3S)-3-(aminomethyl)pyrrolidin-1-yl]-4-chlorobenzoyl}-2-ethylpiperazin-1-yl]-5-(2-ethoxypyridin-3-yl)benzamide], the Ki was less than 10 nM.

Turning to `CCOc1ncccc1-c1ccc(N2CCN(C(=O)c3ccc(F)cc3C(F)(F)F)C[C@H]2CC)c(CNCCNC)c1` [Compound 2-21, {[5-(2-ethoxypyridin-3-yl)-2-[(2R)-2-ethyl-4-[4-fluoro-2-(trifluoromethyl)benzoyl]piperazin-1-yl]phenyl]methyl}[2-(methylamino)ethyl]amine], the Ki is less than 10 nM.

Consider `CCOc1ncccc1-c1ccc(N2CCN(C(=O)c3ccc(Cl)cc3C#N)C[C@H]2CC)c(C(=O)N[C@@H]2CCN(C)C2)n1` [Compound 1-260, 5-[(2R)-4-(4-chloro-2-cyanobenzoyl)-2-ethylpiperazin-1-yl]-2′-ethoxy-N-[(3R)-1-methylpyrrolidin-3-yl]-[2,3′-bipyridine]-6-carboxamide], for which the Ki was less than 10 nM.

Regarding `CCOc1ncccc1-c1ccc(N2CCN(C(=O)c3ccc(OC)nc3C(F)(F)F)C[C@H]2CC)c(CN)n1` [Compound 2-31, 1-{2′-ethoxy-5-[(2R)-2-ethyl-4-[6-methoxy-2-(trifluoromethyl)pyridine-3-carbonyl]piperazin-1-yl]-[2,3′-bipyridin]-6-yl}methanamine], the Ki was less than 10 nM.

For the compound `CCOc1ncccc1-c1ccc(N2CCN(C(=O)N3CCCC[C@H]3C(F)(F)F)C[C@H]2CC)c(C(=O)N[C@@H]2CCN(C)C2)n1` [Compound 1-427, 2′-ethoxy-5-[(2R)-2-ethyl-4-[(2S)-2-(trifluoromethyl)piperidine-1-carbonyl]piperazin-1-yl]-N-[(3R)-1-methylpyrrolidin-3-yl]-[2,3′-bipyridine]-6-carboxamide], the Ki was less than 10 nM.

`CCOc1ncccc1-c1ccc(N2CCN(C(=O)c3ccc(C)cc3C)C[C@H]2CC)c(C(=O)NCCN)c1` [Compound 1-60, N-(2-aminoethyl)-2-[(2R)-4-(2,4-dimethylbenzoyl)-2-ethylpiperazin-1-yl]-5-(2-ethoxypyridin-3-yl)benzamide]: the Ki is less than 10 nM.

`CCOc1ncccc1-c1ccc(N2CCN(C(=O)c3ccc(Cl)cc3C(F)(F)F)C[C@H]2CC)c(C(=O)NC2CN(C)C2)c1` [Compound 1-216, 2-[(2R)-4-[4-chloro-2-(trifluoromethyl)benzoyl]-2-ethylpiperazin-1-yl]-5-(2-ethoxypyridin-3-yl)-N-(1-methylazetidin-3-yl)benzamide]: the Ki is less than 10 nM.

`CCOc1ccccc1-c1ccc(N2CCN(C(=O)[C@H]3CC[C@@H](C(F)(F)F)CC3)C[C@H]2CC)c(C(=O)N[C@@H]2CCNC2)n1` [Compound 1-335, 6-(2-ethoxyphenyl)-3-[(2R)-2-ethyl-4-[cis-4-(trifluoromethyl)cyclohexanecarbonyl]piperazin-1-yl]-N-[(3R)-pyrrolidin-3-yl]pyridine-2-carboxamide]: the Ki is less than 10 nM.

Take `CCOc1ncccc1-c1ccc(N2CCN(C(=O)c3ccc(C(F)(F)F)cc3N3CCC(CN)C3)C[C@H]2CC)c(C(=O)NCCN)c1` (stereo partly drawn) [Compound 1-50, N-(2-aminoethyl)-2-[(2R)-4-{2-[3-(aminomethyl)pyrrolidin-1-yl]-4-(trifluoromethyl)benzoyl}-2-ethylpiperazin-1-yl]-5-(2-ethoxypyridin-3-yl)benzamide]: the Ki is less than 10 nM.

As to `CCOc1ccccc1-c1ccc(N2CCN(C(=O)N3CCC[C@H]3C(F)(F)F)C[C@H]2CC)c(C(=O)N[C@@H]2CCNC2)n1` [Compound 1-342, 6-(2-ethoxyphenyl)-3-[(2R)-2-ethyl-4-[(2S)-2-(trifluoromethyl)pyrrolidine-1-carbonyl]piperazin-1-yl]-N-[(3R)-pyrrolidin-3-yl]pyridine-2-carboxamide], the Ki was less than 10 nM.

In the case of `CCOc1ncccc1-c1ccc(N2CCN(C(=O)c3ccc(Cl)cc3C#N)C[C@H]2CC)c(C(=O)N[C@@H]2CCNC2)n1` [Compound 1-277, 5-[(2R)-4-(4-chloro-2-cyanobenzoyl)-2-ethylpiperazin-1-yl]-2′-ethoxy-N-[(3R)-pyrrolidin-3-yl]-[2,3′-bipyridine]-6-carboxamide], the Ki is less than 10 nM.

Turning to `CCOc1ncccc1-c1ccc(N2CCN(C(=O)C3(c4ccc(F)cc4F)CCC3)C[C@H]2CC)c(C(=O)N[C@@H]2CCN(C)C2)n1` [Compound 1-371, 5-[(2R)-4-[1-(2,4-difluorophenyl)cyclobutanecarbonyl]-2-ethylpiperazin-1-yl]-2′-ethoxy-N-[(3R)-1-methylpyrrolidin-3-yl]-[2,3′-bipyridine]-6-carboxamide], the Ki is less than 10 nM.

For `CCOc1ncccc1-c1ccc(N2CCN(C(=O)C34CCC(C(F)(F)F)(CC3)CC4)C[C@H]2CC)c(C(=O)N[C@@H]2CCNC2)n1` [Compound 1-274, 2′-ethoxy-5-[(2R)-2-ethyl-4-[4-(trifluoromethyl)bicyclo[2.2.2]octane-1-carbonyl]piperazin-1-yl]-N-[(3R)-pyrrolidin-3-yl]-[2,3′-bipyridine]-6-carboxamide], the Ki is less than 10 nM.

`CCOc1ncccc1-c1ccc(N2CCN(C(=O)c3ccc(F)cc3C(F)F)C[C@H]2CC)c(C(=O)N[C@@H]2CCN(C)C2)n1` [Compound 1-279, 5-[(2R)-4-[2-(difluoromethyl)-4-fluorobenzoyl]-2-ethylpiperazin-1-yl]-2′-ethoxy-N-[(3R)-1-methylpyrrolidin-3-yl]-[2,3′-bipyridine]-6-carboxamide]: the Ki is less than 10 nM.

Consider `CCOc1ncccc1-c1ccc(N2CCN(C(=O)O[C@@H](C(C)(C)C)C(F)(F)F)C[C@H]2CC)c(C(=O)N[C@@H]2CN3CCC2CC3)n1` [Compound 1-403, (2S)-1,1,1-trifluoro-3,3-dimethylbutan-2-yl (3R)-4-(6-{[(3S)-1-azabicyclo[2.2.2]octan-3-yl]carbamoyl}-2′-ethoxy-[2,3′-bipyridin]-5-yl)-3-ethylpiperazine-1-carboxylate; or (2R)-1,1,1-trifluoro-3,3-dimethylbutan-2-yl (3R)-4-(6-{[(3S)-1-azabicyclo[2.2.2]octan-3-yl]carbamoyl}-2′-ethoxy-[2,3′-bipyridin]-5-yl)-3-ethylpiperazine-1-carboxylate], for which the Ki is less than 10 nM.

For `CCOc1ncccc1-c1ccc(N2CCN(C(=O)C3(C(F)(F)F)CCCC3)C[C@H]2CC)c(C(=O)NC[C@H]2CCCN2C)n1` [Compound 1-333, 2′-ethoxy-5-[(2R)-2-ethyl-4-[1-(trifluoromethyl)cyclopentanecarbonyl]piperazin-1-yl]-N-{[(2R)-1-methylpyrrolidin-2-yl]methyl}-[2,3′-bipyridine]-6-carboxamide], the Ki is less than 10 nM.

For `CCOc1ccc(C(=O)N2CCN(c3ccc(-c4cccnc4OCC)nc3C(=O)NCCNC)[C@H](CC)C2)c(C(F)(F)F)c1` [Compound 1-137, 2′-ethoxy-5-[(2R)-4-[4-ethoxy-2-(trifluoromethyl)benzoyl]-2-ethylpiperazin-1-yl]-N-[2-(methylamino)ethyl]-[2,3′-bipyridine]-6-carboxamide], the Ki was less than 10 nM.
